# Publication PMC9516332 (Frontiers in Oncology, 2022)
# What was measured:
# Experiment in all cases: Kinase panel profiling at 1 µmol/L (MSA or IMAP), percentage inhibition
# Assay type in all cases: biochemical
# [1] = target: T1, panel of 255 wild-type kinases (Homo sapiens, UniProt Q13976); settings: kinase PGK; 1 µmol/L single concentration; read-out: %-inhibition at 1 µmol/L, PGK
# T1 sequence (Q13976 1-671): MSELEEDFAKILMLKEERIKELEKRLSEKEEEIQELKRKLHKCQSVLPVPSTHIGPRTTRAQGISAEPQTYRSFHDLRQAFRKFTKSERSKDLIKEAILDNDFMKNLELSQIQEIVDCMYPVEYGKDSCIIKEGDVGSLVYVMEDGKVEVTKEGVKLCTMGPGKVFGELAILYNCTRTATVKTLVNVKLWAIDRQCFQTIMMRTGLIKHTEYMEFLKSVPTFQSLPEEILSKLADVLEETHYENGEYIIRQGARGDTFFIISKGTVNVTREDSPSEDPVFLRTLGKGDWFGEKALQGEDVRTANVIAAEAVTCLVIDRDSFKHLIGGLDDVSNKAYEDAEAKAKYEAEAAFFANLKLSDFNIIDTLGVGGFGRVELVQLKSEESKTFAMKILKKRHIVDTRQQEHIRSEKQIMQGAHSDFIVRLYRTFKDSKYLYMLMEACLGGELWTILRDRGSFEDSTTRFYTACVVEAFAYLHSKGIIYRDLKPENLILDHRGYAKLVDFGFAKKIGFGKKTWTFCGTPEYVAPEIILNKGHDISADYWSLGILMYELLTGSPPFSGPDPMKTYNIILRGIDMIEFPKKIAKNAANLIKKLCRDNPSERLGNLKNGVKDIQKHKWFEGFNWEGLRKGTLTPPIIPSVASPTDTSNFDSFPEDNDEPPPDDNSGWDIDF
# [2] = target: panel of 255 wild-type kinases (Homo sapiens, UniProt Q9H2G2); settings: kinase SLK; 1 µmol/L single concentration; read-out: %-inhibition at 1 µmol/L, SLK
# [3] = target: panel of 255 wild-type kinases (Homo sapiens, UniProt P22694); settings: kinase PKACβ; 1 µmol/L single concentration; read-out: %-inhibition at 1 µmol/L, PKACβ
# [4] = target: T2, panel of 255 wild-type kinases (Homo sapiens, UniProt Q14164); settings: kinase IKKε; 1 µmol/L single concentration; read-out: %-inhibition at 1 µmol/L, IKKε
# T2 sequence (Q14164 1-716): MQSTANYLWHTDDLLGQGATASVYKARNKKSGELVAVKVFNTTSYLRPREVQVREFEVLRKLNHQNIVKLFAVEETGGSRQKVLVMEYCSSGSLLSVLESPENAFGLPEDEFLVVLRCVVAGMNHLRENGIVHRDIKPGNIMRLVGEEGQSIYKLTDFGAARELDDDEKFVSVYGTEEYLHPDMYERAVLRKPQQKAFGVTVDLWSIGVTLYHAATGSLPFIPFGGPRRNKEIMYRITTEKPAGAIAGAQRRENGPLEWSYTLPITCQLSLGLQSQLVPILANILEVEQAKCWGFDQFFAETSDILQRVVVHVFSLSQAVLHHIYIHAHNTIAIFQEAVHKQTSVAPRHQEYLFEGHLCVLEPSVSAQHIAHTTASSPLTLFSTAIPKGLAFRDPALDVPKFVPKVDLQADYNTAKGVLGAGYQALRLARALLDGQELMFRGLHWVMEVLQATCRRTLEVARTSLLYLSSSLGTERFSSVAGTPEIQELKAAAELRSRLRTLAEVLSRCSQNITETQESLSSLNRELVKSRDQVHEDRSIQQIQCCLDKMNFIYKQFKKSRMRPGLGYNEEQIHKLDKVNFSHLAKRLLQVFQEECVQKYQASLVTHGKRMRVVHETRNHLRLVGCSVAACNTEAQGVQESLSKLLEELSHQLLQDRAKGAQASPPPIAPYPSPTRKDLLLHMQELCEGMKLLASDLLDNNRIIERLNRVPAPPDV
# [5] = target: panel of 255 wild-type kinases (Homo sapiens, UniProt Q96GD4); settings: AurB kinase assay; 1 µmol/L single concentration; read-out: %-inhibition AurB
# [6] = target: panel of 255 wild-type kinases (Homo sapiens, UniProt Q16512); settings: kinase PKN1; 1 µmol/L single concentration; read-out: %-inhibition at 1 µmol/L, PKN1
# [7] = target: panel of 255 wild-type kinases (Homo sapiens, UniProt O43683); settings: BUB1/BUB3 kinase assay; 1 µmol/L single concentration; read-out: %-inhibition BUB1/BUB3
# [8] = target: panel of 255 wild-type kinases (Homo sapiens, UniProt P27361); settings: kinase Erk1; 1 µmol/L single concentration; read-out: %-inhibition at 1 µmol/L, Erk1
# [9] = target: panel of 255 wild-type kinases (Homo sapiens, UniProt Q04759); settings: kinase PKCθ; 1 µmol/L single concentration; read-out: %-inhibition at 1 µmol/L, PKCθ
Compound,inhibition at 1 µM [1],inhibition at 1 µM [2],inhibition at 1 µM [3],inhibition at 1 µM [4],inhibition at 1 µM [5],inhibition at 1 µM [6],inhibition at 1 µM [7],inhibition at 1 µM [8],inhibition at 1 µM [9]
COc1ccc(CN2C3CC2CN(c2ccc(-c4cc(OCC(C)(C)O)cn5ncc(C#N)c45)cn2)C3)cn1 [selpercatinib],0.302%,14%,-4.64%,20%,79%,9%,19%,-7.44%,-2.29%
Cn1cnc2c(F)c(Nc3ccc(Br)cc3Cl)c(C(=O)NOCCO)cc21 [selumetinib],-2%,8%,-21%,-5.67%,12%,10%,-4%,-4.67%,-0.321%
Cc1cc(Nc2ncnc3ccc(NC4=NC(C)(C)CO4)cc23)ccc1Oc1ccn2ncnc2c1 [tucatinib],0.26%,11%,-15%,-2.62%,-0.568%,18%,0.842%,-2.6%,0.763%
C=CC(=O)N1CCC([C@@H]2CCNc3c(C(N)=O)c(-c4ccc(Oc5ccccc5)cc4)nn32)CC1 [zanubrutinib],-2.64%,2.36%,-8%,6%,-4%,-11%,-6%,-9%,-3%
